pEC50: −log10 of the molar value.
Tested on: SARS-CoV-2 Wuhan virus (SARS-CoV-2-WA1 2020)
Experiment: microbe, parasite or virus in culture
Type: cell-based

## CCC(CC)COC(=O)[C@H](C)N[P@](=O)(OC[C@H]1O[C@@](C#N)(c2ccc3c(N)ncnn23)[C@H](O)[C@@H]1O)Oc1ccccc1 [Remdesivir]
  fold reduction in SARS-CoV-2 replication: 1.5 fold
  inhibition of SARS-CoV-2 Wuhan: did not inhibit
Severe acute respiratory syndrome coronavirus 2, Vero C1008
  pEC50: ~6.10
